Source: US8637531B2, “Pyrido(3,2-d)pyridmidines useful for treating viral infections” (Gilead Sciences, Inc., priority 2006, dated 2014)

Tests used:
HCV replicon = experiment: Anti-HCV replicon assay (EC50, luciferase); type: cell-based; details: Hepatitis C virus, 72 h; human hepatoma Huh-7 cell line harbouring a HCV replicon, 3 days incubation, luciferase luminescence
Protocol: (§1) The anti-HCV activity of the pyrido[3,2-d]pyrimidine derivatives of this invention was tested in a human hepatoma Huh-7 cell line harbouring a HCV replicon. The assay comprised the following steps:
(§2) Step 1: Compound Preparation and Serial Dilution
(§3) • 1. for water soluble pyrido[3,2-d]pyrimidine derivatives, a volume of 500 μL of solution in cell media (DMEM, 10% FBS, P/S, L-Glutamine) was prepared with a concentration being twice the concentration of the starting final serial dilution concentration. A volume of 150 μL of the solution was added to the pre-specified wells in column 1 of a 96-well cell culture plate (PerkinElmer, white plate, cat. #6005181, for EC50 assay; black plate, cat. #6005182 for CC50 assay). The rest of the plate, columns 2-12, was filled with 100 μL of cell media. The plate was then placed on a Precision 2000 Workstation to start the serial dilution. Compounds were diluted three times each step from column 1 to column 10. Column 11 was used as a blank control (no compound added). • 2. for pyrido[3,2-d]pyrimidine derivatives requiring DMSO to dissolve, serial dilution is performed in 50% DMSO in a 384-well plate. A solution containing a compound at 100-fold concentration of the starting final serial dilution concentration was prepared in 50% DMSO and added to the pre-specified wells in column 1 of a polypropylene 384-well plate. The plate was then placed on a Precision 2000 Workstation to start the serial dilution. After the serial dilution, a volume of 2 μL of the solution was transferred from the 384-well plate to a 96-well cell culture plate containing 100 μL of cell media on a Biomek FX Workstation. The DMSO concentration in the final assay condition was 0.5% after cells are added to the plate and the total volume in each well is brought to 200 μL. Step 2: to each well of the serial dilution plate prepared above, 100 μL of cell media containing 6000 suspended Huh-7 HCV replicon cells was added with a Multidrop workstation. The plates were incubated for 3 days at 37° C. with 5% CO2. Step 3: Detection: • a) for the EC50 assay, the media in a 96-well cell culture plate was aspirated with a Biotek EL405 plate-washer. A volume of 200 μL of a solution containing a 1:1 mixture of cell-lysis buffer (Promega, Luciferase Cell Culture Lysis 5× Reagent, cat. #E1531) and luciferase substrate solution (Promega, Luciferase Assay, cat. # E4550) was added to each well of the plate with Multidrop. The plate was incubated for 30 minutes at room temperature before the luminescence signal was measured with a TopCount plate-reader. • b) for the CC50 assay, a volume of 100 μL of pre-mixed CellTiter-Glo (Promega, cat. # G7572) solution is added directly to the cell culture in each well of the plate and the luminescence signal is measured with a TopCount plate-reader after 10 minutes of incubation at room temperature.
Results in table 13 are expressed by the following data: • the 50% effective concentration (EC50), i.e. the concentration that protects 50% of the cell monolayer from virus-induced cytopathic effect, and […]

[1] = CC50 assay in Huh-7 HCV replicon cells (CellTiter-Glo); type: cell-based; details: human, 3 days incubation, CellTiter-Glo luminescence
Protocol: as §1, §2, §3
the 50% cytostatic concentration (CC50), i.e. the concentration that results in 50% inhibition of cell growth.

SMILES | EC50 (HCV replicon) [nM] | CC50 at 3 days [1] [nM] | melting point [°C]
COC[C@@H](C)Oc1nc(N)nc2ccc(-c3ccc(F)cc3)nc12 [Example 38, 2-amino-4-[(R)-1-methoxy-2-propoxy]-6-(4-fluorophenyl)-pyrido(3,2-d)pyrimidine] | < 300 | 10000 to 20000 | 
Nc1nc(O[C@H]2CCOC2)c2nc(-c3ccc(F)cc3)ccc2n1 [Example 16, 2-amino-4-[3(S)-tetrahydrofuranyloxy]-6-(4-fluorophenyl)-pyrido(3,2-d)pyrimidine] | < 300 | > 20000 | 
Nc1nc(OC2CCCCC2)c2nc(-c3ccc(F)cc3)ccc2n1 [Example 32, 2-amino-4-cyclohexyloxy-6-(4-fluorophenyl)-pyrido(3,2-d)pyrimidine] | 300 to 1000 | < 10000 | 180
CSCCOc1nc(N)nc2ccc(-c3ccc(F)cc3)nc12 [Example 8, 2-amino-4-[2-(methylthio)ethoxy]-6-(4-fluorophenyl)pyrido(3,2-d)pyrimidine] | < 300 | > 20000 | 
CCOCCOc1nc(N)nc2ccc(-c3ccc(F)cc3)nc12 [Example 24, 4-(2-ethoxy-ethoxy)-6-(4-fluoro-phenyl)-pyrido[3,2-d]pyrimidin-2-ylamine] | < 300 | > 20000 | 
Nc1nc(OC2CCOCC2)c2nc(-c3ccc(F)cc3)ccc2n1 [Example 33, 2-amino-4-(tetrahydro-2H-pyran-4-oxy)-6-(4-fluorophenyl)-pyrido(3,2-d)pyrimidine] | < 300 | 10000 to 20000 | 
CC(C)OCCOc1nc(N)nc2ccc(-c3ccc(F)cc3)nc12 [Example 6, 2-amino-4-(2-isopropoxyethoxy)-6-(4-fluorophenyl)pyrido(3,2-d)pyrimidine] | < 300 | > 20000 | 
CCCCOCCOc1nc(N)nc2ccc(-c3ccc(F)cc3)nc12 [Example 4, 2-amino-4-(2-butoxyethoxy)-6-(4-fluorophenyl)pyrido(3,2-d)pyrimidine] | > 1000 | > 20000 | 
COC(C)(C)CCOc1nc(N)nc2ccc(-c3ccc(F)cc3)nc12 [Example 12, 2-amino-4-(3-methyl-3-methoxybutoxy)-6-(4-fluorophenyl)pyrido(3,2-d) pyrimidine] | < 300 | > 20000 | 
Nc1nc(OCC2CC2)c2nc(-c3ccc(F)cc3)ccc2n1 [Example 22, 4-cyclopropylmethoxy-6-(4-fluoro-phenyl)-pyrido[3,2-d]pyrimidin-2-ylamine] | < 300 | > 20000 | 
Nc1nc(OCC(F)F)c2nc(-c3ccc(F)cc3)ccc2n1 [Example 7, 2-amino-4-(2,2-difluoroethoxy)-6-(4-fluorophenyl)pyrido(3,2-d)pyrimidine] | < 300 | > 20000 | 
Nc1nc(OC2CO[C@H]3OCC[C@@H]23)c2nc(-c3ccc(F)cc3)ccc2n1 (stereo partly drawn) [Example 18, 2-amino-4-[hexahydro-furo(2,3-b)furan-3-oxy]-6-(4-fluorophenyl)-pyrido(3,2-d) pyrimidine] | < 300 | > 20000 | 
CCC(CC)Oc1nc(N)nc2ccc(-c3ccc(F)cc3)nc12 [Example 20, 4-(1-ethyl-propoxy)-6-(4-fluoro-phenyl)-pyrido[3,2-d]pyrimidin-2-ylamine] | < 300 | < 10000 | 
CC#CCCOc1nc(N)nc2ccc(-c3ccc(F)cc3)nc12 [Example 14, 2-amino-4-(3-pentyn-1-oxy)-6-(4-fluorophenyl)pyrido(3,2-d)pyrimidine] | > 1000 | > 20000 | 
COCCOc1nc(N)nc2ccc(-c3ccc(F)cc3)nc12 [Example 23, 6-(4-fluoro-phenyl)-4-(2-methoxy-ethoxy)-pyrido[3,2-d]pyrimidin-2-ylamine] | < 300 | > 20000 | 
C=CC(C)(C)Oc1nc(N)nc2ccc(-c3ccc(F)cc3)nc12 [Example 13, 2-amino-4-(2-methyl-3-buten-2-oxy)-6-(4-fluorophenyl)pyrido(3,2-d)pyrimidine] | > 1000 | > 20000 | 
Nc1nc(OCC2CCOC2)c2nc(-c3ccc(F)cc3)ccc2n1 (stereo not drawn) [Example 36, 2-amino-4-(tetrahydro-3-furanmethoxy)-6-(4-fluorophenyl)-pyrido(3,2-d)pyrimidine] | < 300 | 10000 to 20000 | 219
Nc1nc(OCC2CCCC2)c2nc(-c3ccc(F)cc3)ccc2n1 [Example 10, 2-amino-4-(cyclopentylmethoxy)-6-(4-fluorophenyl)pyrido(3,2-d)pyrimidine] | 300 to 1000 | > 20000 | 
CCCOCCOc1nc(N)nc2ccc(-c3ccc(F)cc3)nc12 [Example 3, 2-amino-4-(2-propoxyethoxy)-6-(4-fluorophenyl)pyrido(3,2-d)pyrimidine] | 300 to 1000 | > 20000 | 
CS(=O)(=O)CCOc1nc(N)nc2ccc(-c3ccc(F)cc3)nc12 [Example 19, 2-amino-4-[2-(methylsulfonyl)ethoxy]-6-(4-fluorophenyl)-pyrido(3,2-d) pyrimidine] | < 300 | > 20000 | 
Nc1nc(OC2CCCC2)c2nc(-c3ccc(F)cc3)ccc2n1 [Example 11, 2-amino-4-(cyclopentoxy)-6-(4-fluorophenyl)pyrido(3,2-d)pyrimidine] | < 300 | > 20000 | 
CCOC(C)COc1nc(N)nc2ccc(-c3ccc(F)cc3)nc12 (stereo not drawn) [Example 5, 2-amino-4-(2-ethoxy-1-propoxy)-6-(4-fluorophenyl)pyrido(3,2-d)pyri-midine] | < 300 | > 20000 | 
Nc1nc(OCC2CCCO2)c2nc(-c3ccc(F)cc3)ccc2n1 (stereo not drawn) [Example 35, 2-amino-4-(tetrahydro-2-furanmethoxy)-6-(4-fluorophenyl)-pyrido(3,2-d)pyrimidine] | 300 to 1000 | 10000 to 20000 | 193
Nc1nc(OCC2CCCCO2)c2nc(-c3ccc(F)cc3)ccc2n1 (stereo not drawn) [Example 34, 2-amino-4-(tetrahydropyran-2-methoxy)-6-(4-fluorophenyl)-pyrido(3,2-d)pyrimidine] | 300 to 1000 | 10000 to 20000 | 202
Nc1nc(OC2CCC2)c2nc(-c3ccc(F)cc3)ccc2n1 [Example 9, 2-amino-4-(cyclobutoxy)-6-(4-fluorophenyl)pyrido(3,2-d)pyrimidine] | < 300 | > 20000 | 
Nc1nc(OCCN2CCOCC2)c2nc(-c3ccc(F)cc3)ccc2n1 [Example 21, 6-(4-fluoro-phenyl)-4-(2-morpholin-4-yl-ethoxy)-pyrido[3,2-d]pyrimidin-2-ylamine] | 300 to 1000 | > 20000 | 
Nc1nc(O[C@@H]2CCOC2)c2nc(-c3ccc(F)cc3)ccc2n1 [Example 17, 2-amino-4-[3(R)-tetrahydrofuranyloxy]-6-(4-fluorophenyl)-pyrido(3,2-d) pyrimidine] | < 300 | > 20000 | 
COC[C@H](C)Oc1nc(N)nc2ccc(-c3ccc(F)cc3)nc12 [Example 37, 2-amino-4-[(S)-1-methoxy-2-propoxy]-6-(4-fluorophenyl)-pyrido(3,2-d)pyrimidine] | < 300 | > 20000 | 
